Assay results published in patent publication US8546414B2, “Ion channel modulators and methods of use” (Vertex Pharmaceuticals Incorporated, priority 2004, dated 2013).

Legend:
CaV2.2 = target: T1, CaV2.2 (Homo sapiens, UniProt Q00975); experiment: VIPR optical membrane potential assay with electrical stimulation, CaV2.2; type: cell-based; conditions: Table 9, CaV 2.2 receptors
T1 construct: expressed in transfected cells; host or cells: HEK293
Description: A. Optical Methods for Assaying CaV Inhibition Properties of Compounds:
(§1) Antagonist properties of test compounds were assessed as follows. Cells expressing the CaV of interest were placed into microtiter plates. After an incubation period, the cells were stained with fluorescent dyes sensitive to the transmembrane potential. The test compounds were added to the microtiter plate. The cells were stimulated with electrical means to evoke a CaV dependent membrane potential change from unblocked channels, which was detected and measured with trans-membrane potential-sensitive dyes. Antagonists were detected as a decreased membrane potential response to the stimulus.
(§2) VIPR® Optical Membrane Potential Assay Method with Electrical Stimulation
The following is an example of how CaV2.2 inhibition activity is measured using the optical membrane potential method. Other subtypes are performed in an analogous mode in a cell line expressing the CaV of interest.
HEK293 cells stably expressing CaV2.2 are plated into 96-well microtiter plates. After an appropriate incubation period, the cells are stained with the voltage sensitive dyes CC2-DMPE/DiSBAC2(3) as follows.
(§3) 2X CC2-DMPE=20 μM CC2-DMPE: 10 mM CC2-DMPE is vortexed with an equivalent volume of 10% Pluronic, followed by vortexing in required amount of HBSS containing 10 mM HEPES. Each cell plate will require 5 mL of 2×CC2-DMPE. 50 μL of 2×CC2-DMPE is added to wells containing washed cells, resulting in a 10 μM final staining concentration. The cells are stained for 30 minutes in the dark at RT.
Vortex in required amount of Bath X with beta-cyclodextrin. Each 96 well cell plate will require 5 ml of 2XCC2DMPE. Wash plate with ELx405 with Bath X, leaving a residual volume of 50 μL/well. Add 50 μL of 2XCC2DMPE & […] to each well. Stain for 30 minutes in the dark at RT.
Allow solution to sit for 10 minutes. Slowly mix in 370 mM BaCl2. This solution can be used to solvate compound plates. Note that compound plates are made at 1.5× drug concentration and not the usual 2X. Wash CC2 stained plate, again, leaving residual volume of 50 μL. Add 100 uL/well of the AY17 solution. Stain for 15 minutes in the dark at RT. Run plate on the optical reader.
(§4) The instrument comprises a microtiter plate handler, an optical system for exciting the coumarin dye while simultaneously recording the coumarin and oxonol emissions, a waveform generator, a current- or voltage-controlled amplifier, and a device for inserting electrodes in well. Under integrated computer control, this instrument passes user-programmed electrical stimulus protocols to cells within the wells of the microtiter plate.
Insert or use electrodes into each well to be assayed.
(§5) Use the current-controlled amplifier to deliver stimulation wave pulses for 3-5 s. Two seconds of pre-stimulus recording are performed to obtain the un-stimulated intensities. Five seconds of post-stimulation recording are performed to examine the relaxation to the resting state.
(§6) Data are analyzed and reported as normalized ratios of background-subtracted emission intensities measured in the 460 nm and 580 nm channels. Background intensities are then subtracted from each assay channel. Background intensities are obtained by measuring the emission intensities during the same time periods from identically treated assay wells in which there are no cells. The response as a function of time is then reported as the ratios obtained using the following formula: […]
(§7) The data is further reduced by calculating the initial (Ri) and final (Rf) ratios. These are the average ratio values during part or all of the pre-stimulation period, and during sample points during the stimulation period. The response to the stimulus R=Rf/Ri is then calculated.
Control responses are obtained by performing assays in the presence of a compound with the desired properties (positive control), such as mibefradil, and in the absence of pharmacological agents (negative control).

NaV1.3 = target: T2, NaV1.3 (Homo sapiens, UniProt Q9NY46); experiment: VIPR optical membrane potential assay with electrical stimulation, NaV1.3; type: cell-based; conditions: Table 9, NaV 1.3 receptors
T2 construct: expressed in transfected cells; host or cells: HEK293
Description: as §1, with “expressing the NaV of interest” for “expressing the CaV of interest”, “stimulated with either chemical or electrical means” for “stimulated with electrical means”, “evoke a NaV dependent membrane” for “evoke a CaV dependent membrane”
as §2
The following is an example of how NaV1.3 inhibition activity is measured using the optical membrane potential method#2. Other subtypes are performed in an analogous mode in a cell line expressing the NaV of interest.
HEK293 cells stably expressing NaV1.3 are plated into 96-well microtiter plates. After an appropriate incubation period, the cells are stained with the voltage sensitive dyes CC2-DMPE/DiSBAC2(3) as follows.
as §3, with “pluronic,” for “Pluronic,”
2X DISBAC2(3) with ABSC1=6 μM DISBAC2(3) and 1 mM ABSC1: The required amount of 10 mM DISBAC2(3) is added to a 50 ml conical tube and mixed with 1 μL 10% pluronic for each mL of solution to be made and vortexed together. Then HBSS/HEPES is added to make up 2× solution. Finally, the ABSC1 is added.
The 2X DiSBAC2(3) solution can be used to solvate compound plates. Note that compound plates are made at 2× drug concentration. Wash stained plate again, leaving residual volume of 50 Add 50 μL/well of the 2X DiSBAC2(3) w/ABSC1. Stain for 30 minutes in the dark at RT.
as §4
as §5, with “• 1. Insert or use electrodes into each well to be assayed. • 2. Use” for “Use”, “3” for “3-5”, “state. Data Analysis” for “state.”
as §6, §7
Control responses are obtained by performing assays in the presence of a compound with the desired properties (positive control), such as tetracaine, and in the absence of pharmacological agents (negative control). Responses to the negative (N) and positive (P) controls are calculated as above. The compound antagonist activity A is defined as: […]

T2 sequence (Q9NY46 whole entry): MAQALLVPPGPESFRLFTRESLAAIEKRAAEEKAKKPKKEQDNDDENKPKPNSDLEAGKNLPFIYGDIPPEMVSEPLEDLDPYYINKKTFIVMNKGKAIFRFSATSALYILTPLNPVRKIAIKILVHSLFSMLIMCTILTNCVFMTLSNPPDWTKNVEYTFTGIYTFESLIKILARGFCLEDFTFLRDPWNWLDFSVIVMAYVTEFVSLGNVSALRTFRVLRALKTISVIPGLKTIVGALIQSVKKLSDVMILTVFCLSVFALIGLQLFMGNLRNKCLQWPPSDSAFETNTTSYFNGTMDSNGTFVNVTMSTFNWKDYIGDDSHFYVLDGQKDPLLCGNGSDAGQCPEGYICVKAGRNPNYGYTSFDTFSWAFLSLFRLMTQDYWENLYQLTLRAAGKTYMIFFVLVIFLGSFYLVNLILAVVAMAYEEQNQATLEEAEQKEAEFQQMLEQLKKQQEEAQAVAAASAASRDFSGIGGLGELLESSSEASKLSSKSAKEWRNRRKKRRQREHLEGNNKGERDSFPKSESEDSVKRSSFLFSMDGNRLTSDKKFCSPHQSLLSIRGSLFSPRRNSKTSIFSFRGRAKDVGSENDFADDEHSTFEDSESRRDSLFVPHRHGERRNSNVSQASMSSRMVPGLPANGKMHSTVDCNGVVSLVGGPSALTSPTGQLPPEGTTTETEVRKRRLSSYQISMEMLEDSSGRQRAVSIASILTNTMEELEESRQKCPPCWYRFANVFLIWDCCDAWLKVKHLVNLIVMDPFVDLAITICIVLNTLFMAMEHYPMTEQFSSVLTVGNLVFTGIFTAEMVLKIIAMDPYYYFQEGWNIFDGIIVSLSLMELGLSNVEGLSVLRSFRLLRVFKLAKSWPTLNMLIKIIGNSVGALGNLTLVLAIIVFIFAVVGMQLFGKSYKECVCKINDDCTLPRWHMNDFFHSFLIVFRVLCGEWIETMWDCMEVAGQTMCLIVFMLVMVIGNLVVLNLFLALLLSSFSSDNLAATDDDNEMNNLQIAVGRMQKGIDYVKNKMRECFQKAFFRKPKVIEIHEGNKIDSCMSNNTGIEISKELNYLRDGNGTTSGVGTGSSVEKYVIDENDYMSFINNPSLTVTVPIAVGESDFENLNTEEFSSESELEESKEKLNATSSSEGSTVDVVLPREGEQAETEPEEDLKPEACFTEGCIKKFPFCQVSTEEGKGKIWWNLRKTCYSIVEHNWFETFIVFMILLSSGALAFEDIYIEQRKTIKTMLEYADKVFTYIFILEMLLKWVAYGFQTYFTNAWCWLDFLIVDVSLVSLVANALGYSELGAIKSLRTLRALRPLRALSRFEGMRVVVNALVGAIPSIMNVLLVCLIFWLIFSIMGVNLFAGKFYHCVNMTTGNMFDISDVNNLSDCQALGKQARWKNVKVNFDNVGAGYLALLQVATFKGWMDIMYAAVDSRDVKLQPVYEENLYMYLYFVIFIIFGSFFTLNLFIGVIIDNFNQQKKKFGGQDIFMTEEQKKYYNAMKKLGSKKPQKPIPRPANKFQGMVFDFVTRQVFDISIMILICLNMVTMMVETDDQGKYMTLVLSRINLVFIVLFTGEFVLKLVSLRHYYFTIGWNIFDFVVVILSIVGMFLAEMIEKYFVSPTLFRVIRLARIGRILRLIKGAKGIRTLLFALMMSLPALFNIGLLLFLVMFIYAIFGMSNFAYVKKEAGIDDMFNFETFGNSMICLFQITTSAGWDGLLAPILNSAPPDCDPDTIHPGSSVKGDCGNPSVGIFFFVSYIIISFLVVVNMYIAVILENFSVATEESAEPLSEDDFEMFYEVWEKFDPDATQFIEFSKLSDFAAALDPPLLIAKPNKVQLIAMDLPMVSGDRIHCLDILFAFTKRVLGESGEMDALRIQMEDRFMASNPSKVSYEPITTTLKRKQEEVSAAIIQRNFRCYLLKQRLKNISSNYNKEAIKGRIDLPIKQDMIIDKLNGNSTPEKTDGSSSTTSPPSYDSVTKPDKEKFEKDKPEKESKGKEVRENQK

CCCCNc1ncc(C(=O)N(C)CC(C)C)c(-c2cccc(C)c2)n1 [compound 262]
IC50 (CaV2.2): > 10 µM | IC50 (NaV1.3): > 10 µM

CC1CC(C)CN(C(=O)c2cnc(NCc3cccc(Cl)c3)nc2-c2ccc(C#N)cc2)C1 (stereo not shown) [compound 238]
IC50 (CaV2.2): > 10 µM | IC50 (NaV1.3): > 10 µM

CC(=O)N1CCN(c2ncc(C(=O)N(Cc3ccccc3)C(C)C)c(-c3ccccc3F)n2)CC1 [compound 216]
IC50 (CaV2.2): > 10 µM | IC50 (NaV1.3): > 10 µM

CCN(Cc1ccccc1)C(=O)c1cnc(N2CCCCC2)nc1-c1ccccc1F [compound 237]
IC50 (CaV2.2): 2 to 10 µM | IC50 (NaV1.3): > 10 µM

CN(C(=O)c1cnc(NCC2CC2)nc1-c1ccc(C#N)cc1)C1CCCCC1 [compound 298]
IC50 (CaV2.2): > 10 µM | IC50 (NaV1.3): > 10 µM

CCN(C)c1ncc(C(=O)NCCOC)c(-c2ccc(C#N)cc2)n1 [compound 314]
IC50 (CaV2.2): > 10 µM | IC50 (NaV1.3): > 10 µM

CC1CCN(c2ncc(C(=O)N(C)C3CCCCC3)c(-c3ccc(C#N)cc3)n2)CC1 [compound 241]
IC50 (CaV2.2): > 10 µM | IC50 (NaV1.3): > 10 µM

Cc1cccc(-c2nc(N3CCOCC3)ncc2C(=O)NCc2cccc(C(F)(F)F)c2)c1 [compound 293]
IC50 (CaV2.2): > 10 µM | IC50 (NaV1.3): > 10 µM

CC1CCCCC1NC(=O)c1cnc(N2CCCC(C(N)=O)C2)nc1-c1ccc(C#N)cc1 (stereo not shown) [compound 286]
IC50 (CaV2.2): > 10 µM | IC50 (NaV1.3): > 10 µM

CC(C)CN(C)C(=O)c1cnc(N2CCCC2)nc1-c1ccccc1F [compound 270]
IC50 (CaV2.2): > 10 µM | IC50 (NaV1.3): > 10 µM

Cc1cccc(-c2nc(N3CCOCC3)ncc2C(=O)N(Cc2ccccc2)C(C)C)c1 [compound 240]
IC50 (CaV2.2): > 10 µM | IC50 (NaV1.3): > 10 µM

COCCCNC(=O)c1cnc(NC2CCCCC2)nc1-c1ccc(-c2ccccc2)cc1 [compound 310]
IC50 (CaV2.2): > 10 µM | IC50 (NaV1.3): > 10 µM

COCCCNC(=O)c1cnc(N2CCOCC2)nc1-c1ccc(C#N)cc1 [compound 349]
IC50 (CaV2.2): > 10 µM | IC50 (NaV1.3): > 10 µM

O=C(NCc1ccccc1C(F)(F)F)c1cnc(N2CCOCC2)nc1-c1ccccc1F [compound 242]
IC50 (CaV2.2): > 10 µM | IC50 (NaV1.3): > 10 µM

COCCCNc1ncc(C(=O)N(C)C2CCCCC2)c(-c2ccc(C#N)cc2)n1 [compound 303]
IC50 (CaV2.2): > 10 µM | IC50 (NaV1.3): > 10 µM

Cc1cccc(-c2nc(NCc3ccccc3)ncc2C(=O)N2CCOCC2)c1 [compound 304]
IC50 (CaV2.2): > 10 µM | IC50 (NaV1.3): > 10 µM

CCN(C)c1ncc(C(=O)N(C)C2CCCCC2)c(-c2ccc(C#N)cc2)n1 [compound 227]
IC50 (CaV2.2): > 10 µM | IC50 (NaV1.3): > 10 µM

CC(=O)NCCNc1ncc(C(=O)N2CCC(C)CC2)c(-c2ccc(-c3ccccc3)cc2)n1 [compound 251]
IC50 (CaV2.2): 2 to 10 µM | IC50 (NaV1.3): > 10 µM

COCCCNc1ncc(C(=O)N(Cc2ccccc2)C(C)C)c(-c2ccccc2F)n1 [compound 296]
IC50 (CaV2.2): > 10 µM | IC50 (NaV1.3): > 10 µM

CCN(Cc1cccc(C)c1)C(=O)c1cnc(N(C)CC)nc1-c1ccccc1F [compound 246]
IC50 (CaV2.2): 2 to 10 µM | IC50 (NaV1.3): > 10 µM
